Test results reported in patent publication US8143419B2, “Trisubstituted 1,2,4-triazoles” (Janssen Pharmaceutica N. V., priority 2006, dated 2012).
pEC50: −log10 of the molar value.

Columns and labels:
hα7-wt nAChR = target: T1, hα7-wt nAChR (Homo sapiens, UniProt P36544); assay: Ca2+ flux imaging (FDSS) (Protocol B), PAM activity with choline as agonist; assay type: cell-based; conditions: for pEC50: "<5" = no top plateau at maximal concentration; for Emax: read-out: % efficacy
T1 construct: expressed in transfected cells
T1 sequence (P36544 23-502): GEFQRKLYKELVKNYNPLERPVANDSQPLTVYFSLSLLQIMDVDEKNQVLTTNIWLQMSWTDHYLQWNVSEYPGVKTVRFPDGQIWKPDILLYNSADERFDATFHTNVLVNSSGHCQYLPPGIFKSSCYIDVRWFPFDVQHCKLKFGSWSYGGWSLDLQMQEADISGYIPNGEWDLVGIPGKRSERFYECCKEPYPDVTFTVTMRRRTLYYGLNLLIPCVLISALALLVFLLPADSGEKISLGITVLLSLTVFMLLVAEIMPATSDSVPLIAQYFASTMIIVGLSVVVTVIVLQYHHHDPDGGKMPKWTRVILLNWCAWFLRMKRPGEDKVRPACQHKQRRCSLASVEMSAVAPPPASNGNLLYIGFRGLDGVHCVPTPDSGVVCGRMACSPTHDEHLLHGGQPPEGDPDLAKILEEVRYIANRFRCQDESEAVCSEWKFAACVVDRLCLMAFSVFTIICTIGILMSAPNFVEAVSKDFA
Method: • Hanks buffered saline solution (HBSS, Invitrogen, Belgium), supplemented with 10 mM HEPES (Invitrogen, Belgium), CaCl2 to a final concentration of 5 mM, 0.1% Bovine serum albumin (Sigma-Aldrich NV, Belgium). b) Calcium-Sensitive Dye—Fluo-4AM • Fluo-4AM (Molecular Probes, USA) was dissolved in DMSO containing 10% Pluronic acid (Molecular Probes, USA) to give a stock solution which was diluted in assay buffer supplemented with 5 mM probenicid (Sigma, Aldrich NV, Belgium) to give a final concentration of 2 μM. c) 384-Well Plates • Black 384 well plate black/clear plates, PDL pre-coated (Corning, Incorporated, USA) d) Calcium Flux Measurement
A Functional drug screening system (FDSS, Hamamatsu) was used to measure intracellular free-calcium flux signals.
Monolayers of hα7-wt nAChR-expressing cells were grown in multi-well plates, in particular black-sided, transparent bottomed 384 well plates coated with poly-D-lysine for 24 hours prior to loading with a fluorescent calcium indicator, in a particular embodiment loading with fluo-4AM for up to 120 minutes.
PAM activity was detected in real time by applying the compounds to be tested to the loaded cells along with a α7 nicotinic receptor agonist during constant monitoring of cellular fluorescence in a FDSS. Compounds giving peak fluorescent responses greater than the response due to agonist alone, were considered to be α7 nAChR PAM's. In a particular embodiment, the α7 nicotinic receptor agonist was choline, a more particular embodiment choline applied at a sub-maximal concentration of 100 μM. In a further setting of the present invention the compounds to be tested were applied prior to the α7 nicotinic receptor agonist, in a particular embodiment up to 10 minutes prior to the agonist.
A control response to choline was calculated on each plate from the difference in peak in fluorescence in wells receiving either choline or assay buffer alone. Compounds of the present invention were tested at a concentration range from 0.01 μM to 30 μM. Compounds were considered to have an interesting activity when they potentiated the choline signal at least with 500% when tested at a concentration of 30 μM (the efficacy of 100 μM choline was defined as 100% in the absence of a PAM). The compounds also have a potentiating effect on the response to choline when measured by whole-cell patch clamp electrophysiology in GH4C1 cells stably over-expressing the human wild-type α7 receptor.

SMILES	pEC50 (hα7-wt nAChR)	Emax (hα7-wt nAChR) [%]	melting point [°C]
CC(=O)c1ccc(-c2nc(Nc3ccc(F)c(F)c3)nn2C[C@H](C)O)cn1 [Compound 50]	5.20	650	147.8
C/C(N)=N/OC(=O)CCn1nc(Nc2ccc(F)c(C(F)(F)F)c2)nc1-c1ccncc1 [Compound 53]	5.30	–	190.2
Cc1nc(CCn2nc(Nc3ccc(F)c(C(F)(F)F)c3)nc2-c2ccnc(Cl)c2)no1 [Compound 56]	5.90	717	117.4
CN(C)C(=O)CCn1nc(Nc2ccc(F)c(C(F)(F)F)c2)nc1-c1ccnc(CNC(=O)C(F)(F)F)c1 [Compound 59]	6.80	669	182.4
O=C(Cn1nc(Nc2ccc(F)c(C(F)(F)F)c2)nc1-c1ccnc(CO)c1)NC1CC1 [Compound 61]	5.30	–	242.2
COCc1cc(-c2nc(Nc3ccc(F)c(C(F)(F)F)c3)nn2CC(=O)NC2CC2)ccn1 [Compound 62]	6.50	–	204.6
CN(C)C(=O)CCCn1nc(Nc2ccc(F)c(C(F)(F)F)c2)nc1-c1ccnc(Cl)c1 [Compound 68]	6.10	–	168.8
CCc1cc(-c2nc(Nc3cccc(C(F)(F)F)c3)nn2CCO)ccn1 [Compound 70]	5.70	–	167.9
CC(C)c1ccc(-c2nc(Nc3cccc(C(F)(F)F)c3)nn2CCO)cn1 [Compound 71]	6.10	601	177.1
COc1ccc(-c2nc(Nc3cccc(C(F)(F)F)c3)nn2CCO)cn1 [Compound 72]	5.90	–	160
COc1cc(-c2nc(Nc3cccc(C(F)(F)F)c3)nn2CCO)ccn1 [Compound 73]	5.50	–	165.4
CC(C)Oc1cc(-c2nc(Nc3cccc(C(F)(F)F)c3)nn2CCO)ccn1 [Compound 74]	5.90	–	159
CN(C)c1cc(-c2nc(Nc3cccc(C(F)(F)F)c3)nn2CCO)ccn1 [Compound 75]	5.60	–	164.2
OCCn1nc(Nc2cccc(C(F)(F)F)c2)nc1-c1ccc(C2CC2)nc1 [Compound 76]	6.30	–	152.9
OCCn1nc(Nc2cccc(C(F)(F)F)c2)nc1-c1ccc(N2CCOCC2)nc1 [Compound 77]	5.60	–	145.6
COCCNC(=O)Cn1nc(Nc2cccc(C(F)(F)F)c2)nc1-c1ccc2c(c1)OCCO2 [Compound 82]	6.70	–	166.3 to 168.3
COc1cc(-c2nc(Nc3cccc(C(F)(F)F)c3)nn2CCC(=O)N(C)C)cc(C)n1 [Compound 83]	6.70	–	187.2
COc1cc(-c2nc(Nc3cccc(C(F)(F)F)c3)nn2CCC(=O)N(C)C)cc(Cl)n1 [Compound 84]	6.50	–	177.7
O=C(CCn1nc(Nc2cccc(C(F)(F)F)c2)nc1-c1ccncc1)N1CCCC1 [Compound 85]	6.50	–	182.2
OCCn1nc(Nc2ccc(F)c(C(F)(F)F)c2)nc1-c1ccncc1 [Compound 87]	5.60	–	171.1
CCc1cc(-c2nc(Nc3ccc(F)c(C(F)(F)F)c3)nn2CCO)ccn1 [Compound 88]	6.20	–	183
OCCn1nc(Nc2ccc(F)c(C(F)(F)F)c2)nc1-c1ccncc1F [Compound 89]	5.30	–	149.4
COc1cc(-c2nc(Nc3ccc(F)c(C(F)(F)F)c3)nn2CCO)ccn1 [Compound 90]	5.70	–	177.1
CCOc1ccc(-c2nc(Nc3ccc(F)c(C(F)(F)F)c3)nn2CCO)cn1 [Compound 91]	6.30	–	157.9
CNc1ccc(-c2nc(Nc3ccc(F)c(C(F)(F)F)c3)nn2CCO)cn1 [Compound 92]	5.50	–	179
OCCn1nc(Nc2ccc(F)c(C(F)(F)F)c2)nc1-c1ccc(C2CC2)nc1 [Compound 94]	6.60	–	168
FCCn1nc(Nc2ccc(F)c(C(F)(F)F)c2)nc1-c1ccc(C2CC2)nc1 [Compound 96]	5.60	–	126.5

SMILES	pEC50 (hα7-wt nAChR)	Emax (hα7-wt nAChR) [%]	melting point [°C]
Cc1cc(-c2nc(Nc3ccc(F)c(C(F)(F)F)c3)nn2C[C@H](C)O)ccn1 [Compound 97]	5.50	–	145.2
CNc1cc(-c2nc(Nc3ccc(F)c(C(F)(F)F)c3)nn2C[C@H](C)O)ccn1 [Compound 98]	< 5.00	–	164.5
C[C@H](O)Cn1nc(Nc2ccc(F)c(C(F)(F)F)c2)nc1-c1ccnc(NC2CC2)c1 [Compound 103]	6.10	–	176.5
C[C@H](O)Cn1nc(Nc2ccc(F)c(C(F)(F)F)c2)nc1-c1ccnc(NCC2CC2)c1 [Compound 104]	5.50	–	145.8
C[C@H](O)Cn1nc(Nc2ccc(F)c(C(F)(F)F)c2)nc1-c1cnc2c(c1)OCC2 [Compound 105]	5.40	–	174.4
CNC(=O)Cn1nc(Nc2ccc(F)c(C(F)(F)F)c2)nc1-c1ccnc(C)c1 [Compound 107]	6.00	–	265
CNC(=O)Cn1nc(Nc2ccc(F)c(C(F)(F)F)c2)nc1-c1ccc(C)nc1 [Compound 108]	5.60	–	247.1
CNC(=O)Cn1nc(Nc2ccc(F)c(C(F)(F)F)c2)nc1-c1ccncc1OC [Compound 109]	5.40	–	234.8
CNC(=O)Cn1nc(Nc2ccc(F)c(C(F)(F)F)c2)nc1-c1ccc(OC)nc1 [Compound 110]	6.90	–	255.1
CCOc1ccc(-c2nc(Nc3ccc(F)c(C(F)(F)F)c3)nn2CC(=O)NC)cn1 [Compound 111]	6.60	–	236.2
CNC(=O)Cn1nc(Nc2ccc(F)c(C(F)(F)F)c2)nc1-c1ccnc(NC)c1 [Compound 112]	6.10	–	259.6
CNC(=O)Cn1nc(Nc2ccc(F)c(C(F)(F)F)c2)nc1-c1ccc(NC)nc1 [Compound 113]	5.70	–	256.6
CNC(=O)Cn1nc(Nc2ccc(F)c(C(F)(F)F)c2)nc1-c1ccncc1NC [Compound 114]	6.20	–	260.8
CNC(=O)Cn1nc(Nc2ccc(F)c(C(F)(F)F)c2)nc1-c1ccc(NCCOC)nc1 [Compound 115]	< 5.00	–	207.1
CNC(=O)Cn1nc(Nc2ccc(F)c(C(F)(F)F)c2)nc1-c1ccncc1F [Compound 116]	5.90	–	249.5
CNC(=O)Cn1nc(Nc2ccc(F)c(C(F)(F)F)c2)nc1-c1ccncc1Cl [Compound 117]	6.00	–	199.2
CCNC(=O)Cn1nc(Nc2ccc(F)c(C(F)(F)F)c2)nc1-c1ccncc1C [Compound 118]	6.10	–	238.6
COc1ccc(-c2nc(Nc3ccc(F)c(C(F)(F)F)c3)nn2CC(=O)NC(C)C)c(OC)c1 [Compound 119]	6.10	974	215 to 219.2
Cc1ccncc1-c1nc(Nc2ccc(F)c(C(F)(F)F)c2)nn1CC(=O)NC1CC1 [Compound 120]	5.40	–	251
COc1ncccc1-c1nc(Nc2ccc(F)c(C(F)(F)F)c2)nn1CC(=O)NC1CC1 [Compound 121]	5.60	–	242.4
CC(C)(O)c1cc(-c2nc(Nc3ccc(F)c(C(F)(F)F)c3)nn2CC(=O)NC2CC2)ccn1 [Compound 122]	5.70	988	174
CC(=O)c1cc(-c2nc(Nc3ccc(F)c(C(F)(F)F)c3)nn2CC(=O)NC2CC2)ccn1 [Compound 123]	5.90	–	213.2
Cc1cc(-c2nc(Nc3ccc(F)c(C(F)(F)F)c3)nn2CC(=O)N2CCCC2)ccn1 [Compound 124]	5.60	–	172.3
CN(C)C(=O)CCn1nc(Nc2ccc(F)c(C(F)(F)F)c2)nc1-c1cccnc1 [Compound 125]	6.20	–	190
Cc1ncccc1-c1nc(Nc2ccc(F)c(C(F)(F)F)c2)nn1CCC(=O)N(C)C [Compound 126]	5.90	–	171.5
Cc1ccc(-c2nc(Nc3ccc(F)c(C(F)(F)F)c3)nn2CCC(=O)N(C)C)cn1 [Compound 127]	6.70	–	185.4
